# Reference: article PMC5986654, “Combined HAT/EZH2 modulation leads to cancer-selective cell death” (Oncotarget, 2018)
# Legend:
# [1] = molecular target: T1, EZH2 (Homo sapiens, UniProt Q15910); assay: EZH2 methyltransferase in vitro assay; assay type: biochemical
# T1 construct: purchased BPS Biosciences
# Method: EZH2 assays were performed following BPS Biosciences instructions and as previously described.
# [2] = Mouse terminal IV PK study; assay type: in vivo; conditions: iv 2 mg/kg, male CD1 mice, plasma
# Method: pHarmaCology male CD1 mice in a 5 mL/kg injection volume. Terminal blood samples (> 230 μL) were taken under CO2 from pharmacokinetic analysis (mice–iV, ip pK study) groups of 3 mice at each of 8 time-points post dose (0.083, 0.25, 0.5, 1, 2, 4, 8 and 24 h) and placed into heparinized
# Compound was administered both intravenously and tubes. Samples were placed on ice for no longer than 30 intraperitoneally to mice. Blood samples were collected at min before centrifugation (10,000 rpm × 3 min). Plasma 8 time points over 24 hr and plasma analysed by LC-MS/ samples (>100 μL) were collected into fresh tubes and MS to determine the concentration of compound. frozen on dry ice. Number of plasma samples = 24.
# The plasma time concentration profile was Consistent IV profiles were obtained, with little calculated with the main PK parameters (Co, AUClast, variability across the time-points (the average profile is t.,VD, and CL). shown in the second spreadsheet). An average half-life of […]
# For ip dosing. After formulation assessment, […]
# For iv dosing. Compound was dissolved at 0.4 mg/mL. […]
# [3] = molecular target: T2, CYP1A (Homo sapiens, UniProt P05177); assay: Cytochrome P450 inhibition, CYP1A; assay type: in vitro ADME; conditions: human liver microsomes, probe ethoxyresorufin
# T2 construct: from tissue; host or cells: human liver microsomes
# Method: This provided a dose of 2 mg free base material/kg when Cytochrome p450 inhibition (5 isoform iC50 administered iv in a 5 mL/kg dosing volume. determination) mouse terminal ip pK study ADME-Tox Cytochrome P450 inhibition of Compound MC2884 was given ip at a dose of 2 mg/kg MC2884 using human liver microsomes as an estimation to a group of 24 normally fed male CD1 mice in a 10 mL/ of in vitro metabolism. kg injection volume. Terminal blood samples (> 230 μL) MC2884 (0.1 μM–25 μM) was incubated with were taken under CO2 from groups of 3 mice at each of 8 human liver microsomes and NADPH in the presence time-points post dose (0.083, 0.25, 0.5, 1, 2, 4, 8 and 24 h) of a cytochrome P450 isoform-specific probe substrate. and placed into heparinized tubes. Samples were placed on ice For the CYP2C9, CYP2C19, CYP2D6 and CYP3A4 for no longer than 30 min before centrifugation (10,000 rpm × specific reactions, the metabolites were monitored by 3 min). […]
# Cyp2C19 inhibition (0.1 mg/mL) and NADPH (1 mM) in the presence of the probe substrate midazolam (2.5 μM) for 5 min at Six test compound samples at concentrations 37° C. […] For the CYP1A incubations, the reactions microsomes (0.5 mg/mL) and NADPH (1 mM) in the were terminated by methanol, and the formation of the presence of the probe substrate mephenytoin (25 μM) metabolite, resorufin, was monitored by fluorescence for 60 min at 37° C. […]
# T1 sequence (Q15910 whole entry): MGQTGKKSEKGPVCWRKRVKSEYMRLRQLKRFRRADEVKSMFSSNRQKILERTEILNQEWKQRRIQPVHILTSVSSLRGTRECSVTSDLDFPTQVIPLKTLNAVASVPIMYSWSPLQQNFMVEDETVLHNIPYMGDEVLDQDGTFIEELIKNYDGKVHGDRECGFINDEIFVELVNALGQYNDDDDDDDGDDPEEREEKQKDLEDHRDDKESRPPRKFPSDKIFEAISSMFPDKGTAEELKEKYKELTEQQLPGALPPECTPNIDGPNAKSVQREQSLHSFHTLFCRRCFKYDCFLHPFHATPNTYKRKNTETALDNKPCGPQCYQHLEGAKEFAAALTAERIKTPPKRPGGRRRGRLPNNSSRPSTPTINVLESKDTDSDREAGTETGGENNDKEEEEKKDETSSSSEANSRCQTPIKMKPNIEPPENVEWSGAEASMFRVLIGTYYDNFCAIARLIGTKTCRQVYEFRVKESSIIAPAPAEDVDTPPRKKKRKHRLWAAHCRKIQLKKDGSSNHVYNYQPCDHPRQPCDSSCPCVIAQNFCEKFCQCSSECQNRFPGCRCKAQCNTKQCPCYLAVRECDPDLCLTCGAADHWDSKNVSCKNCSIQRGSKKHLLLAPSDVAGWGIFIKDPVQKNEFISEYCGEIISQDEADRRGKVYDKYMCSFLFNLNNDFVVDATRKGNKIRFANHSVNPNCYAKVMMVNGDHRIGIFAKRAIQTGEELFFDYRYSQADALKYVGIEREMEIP
# T1 sequence (O75530 whole entry partner): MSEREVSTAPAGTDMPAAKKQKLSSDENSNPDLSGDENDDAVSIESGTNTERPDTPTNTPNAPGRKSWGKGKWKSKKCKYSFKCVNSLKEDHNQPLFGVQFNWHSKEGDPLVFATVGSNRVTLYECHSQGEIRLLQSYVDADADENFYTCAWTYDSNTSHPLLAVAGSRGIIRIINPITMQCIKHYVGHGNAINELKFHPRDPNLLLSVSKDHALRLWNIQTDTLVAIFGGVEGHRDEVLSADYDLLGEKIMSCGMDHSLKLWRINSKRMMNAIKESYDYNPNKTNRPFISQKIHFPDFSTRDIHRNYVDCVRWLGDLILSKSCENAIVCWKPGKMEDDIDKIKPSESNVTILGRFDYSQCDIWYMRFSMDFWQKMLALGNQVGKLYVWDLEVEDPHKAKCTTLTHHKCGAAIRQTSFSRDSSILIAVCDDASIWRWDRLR
# T1 sequence (Q15022 whole entry partner): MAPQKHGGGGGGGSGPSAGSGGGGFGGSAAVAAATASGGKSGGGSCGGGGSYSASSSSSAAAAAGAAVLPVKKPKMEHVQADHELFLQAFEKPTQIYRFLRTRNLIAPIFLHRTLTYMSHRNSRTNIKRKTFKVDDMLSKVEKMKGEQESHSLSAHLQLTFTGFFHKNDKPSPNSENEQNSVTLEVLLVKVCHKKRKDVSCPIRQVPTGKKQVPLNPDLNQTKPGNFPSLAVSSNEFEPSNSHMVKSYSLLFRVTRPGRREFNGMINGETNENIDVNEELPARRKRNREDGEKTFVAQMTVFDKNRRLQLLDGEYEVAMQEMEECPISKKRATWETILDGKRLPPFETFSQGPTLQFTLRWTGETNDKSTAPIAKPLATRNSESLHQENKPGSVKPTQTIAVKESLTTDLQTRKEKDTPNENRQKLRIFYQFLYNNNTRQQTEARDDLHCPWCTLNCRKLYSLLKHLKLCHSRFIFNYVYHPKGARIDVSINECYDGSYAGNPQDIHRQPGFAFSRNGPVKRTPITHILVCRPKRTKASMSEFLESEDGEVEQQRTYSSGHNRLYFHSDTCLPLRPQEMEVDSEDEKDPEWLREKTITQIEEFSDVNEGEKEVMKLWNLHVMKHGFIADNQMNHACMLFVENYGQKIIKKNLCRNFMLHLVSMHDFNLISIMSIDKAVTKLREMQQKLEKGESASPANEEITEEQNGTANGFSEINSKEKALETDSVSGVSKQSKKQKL
# T1 sequence (Q09028 whole entry partner): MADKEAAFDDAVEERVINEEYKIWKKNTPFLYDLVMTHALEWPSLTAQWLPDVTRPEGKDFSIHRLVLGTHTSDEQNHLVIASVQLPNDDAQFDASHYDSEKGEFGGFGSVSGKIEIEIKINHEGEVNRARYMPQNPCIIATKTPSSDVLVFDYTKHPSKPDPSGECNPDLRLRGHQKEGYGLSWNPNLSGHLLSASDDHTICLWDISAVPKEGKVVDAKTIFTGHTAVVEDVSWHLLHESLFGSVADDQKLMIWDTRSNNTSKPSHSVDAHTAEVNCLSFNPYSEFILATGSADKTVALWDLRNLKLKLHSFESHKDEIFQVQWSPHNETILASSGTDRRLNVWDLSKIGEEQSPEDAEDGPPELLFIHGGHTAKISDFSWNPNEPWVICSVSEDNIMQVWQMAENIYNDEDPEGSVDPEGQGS
# T1 sequence (Q6ZN18 whole entry partner): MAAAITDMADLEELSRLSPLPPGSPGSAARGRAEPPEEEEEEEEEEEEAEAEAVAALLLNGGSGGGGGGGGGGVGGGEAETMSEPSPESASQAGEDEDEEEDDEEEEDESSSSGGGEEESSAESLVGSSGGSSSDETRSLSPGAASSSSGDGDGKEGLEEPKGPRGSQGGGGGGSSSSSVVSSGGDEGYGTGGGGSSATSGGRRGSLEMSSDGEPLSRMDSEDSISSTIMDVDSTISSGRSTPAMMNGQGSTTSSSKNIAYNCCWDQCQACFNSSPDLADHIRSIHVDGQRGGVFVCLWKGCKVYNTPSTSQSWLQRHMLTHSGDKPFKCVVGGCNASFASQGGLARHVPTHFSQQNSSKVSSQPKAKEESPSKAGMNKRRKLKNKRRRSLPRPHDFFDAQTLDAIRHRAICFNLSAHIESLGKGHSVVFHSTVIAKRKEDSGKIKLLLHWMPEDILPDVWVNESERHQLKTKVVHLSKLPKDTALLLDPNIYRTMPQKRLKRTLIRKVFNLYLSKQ
# T2 sequence (P05177 2-516 limits assumed): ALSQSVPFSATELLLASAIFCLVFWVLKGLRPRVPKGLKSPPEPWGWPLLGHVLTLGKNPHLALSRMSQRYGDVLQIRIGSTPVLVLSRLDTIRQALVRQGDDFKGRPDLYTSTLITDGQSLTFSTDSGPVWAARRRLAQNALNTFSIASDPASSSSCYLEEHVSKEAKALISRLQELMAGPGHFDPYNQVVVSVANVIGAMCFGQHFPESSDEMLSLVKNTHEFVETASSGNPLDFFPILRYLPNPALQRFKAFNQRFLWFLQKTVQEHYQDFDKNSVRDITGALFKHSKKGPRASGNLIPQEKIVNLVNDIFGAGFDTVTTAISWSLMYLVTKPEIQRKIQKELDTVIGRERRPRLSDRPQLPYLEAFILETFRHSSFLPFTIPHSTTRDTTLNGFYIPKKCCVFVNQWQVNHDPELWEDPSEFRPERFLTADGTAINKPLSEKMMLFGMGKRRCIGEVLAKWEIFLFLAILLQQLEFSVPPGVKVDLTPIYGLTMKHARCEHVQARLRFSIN
smiles,measurement,setting,value
O=C1/C(=C/c2cccc(Br)c2)CN(Cc2ccccc2)C/C1=C\c1cccc(Br)c1 [MC2884],inhibition at 5 µM,[1]; 5 μM,~40%
same,inhibition at 25 µM,[1]; 25 μM,~80%
same,half-life,[2],4.58 h
same,IC50,[3],> 25 µM
